Measurements taken from ChEMBL document CHEMBL3734713, “4-Thiazolidinone derivatives as potent antimicrobial agents: microwave-assisted synthesis, biological evaluation and docking studies” (2015).
≈ marks a conversion by molar mass, not a printed value.

Tests used:
[1] = test system: Bacillus cereus; assay: Antibacterial activity against clinical isolates of Bacillus cereus assessed as growth inhibition after 24 hrs at 37 degC by iodonitrotetrazolium chloride staining based microdilution broth assay; type: functional
[2] = test system: Micrococcus flavus; assay: Antibacterial activity against Micrococcus flavus ATCC 10240 assessed as growth inhibition after 24 hrs at 37 degC by iodonitrotetrazolium chloride staining based microdilution broth assay; type: functional; details: ATCC 10240, 24 h
[3] = test system: Staphylococcus aureus; assay: Antibacterial activity against Staphylococcus aureus ATCC 6538 assessed as growth inhibition after 24 hrs at 37 degC by iodonitrotetrazolium chloride staining based microdilution broth assay; type: functional; details: ATCC 6538, 24 h
[4] = test system: Listeria monocytogenes; assay: Antibacterial activity against Listeria monocytogenes NCTC 7973 assessed as growth inhibition after 24 hrs at 37 degC by iodonitrotetrazolium chloride staining based microdilution broth assay; type: functional; details: NCTC 7973, 24 h
[5] = test system: Escherichia coli; assay: Antibacterial activity against Escherichia coli ATCC 35210 assessed as growth inhibition after 24 hrs at 37 degC by iodonitrotetrazolium chloride staining based microdilution broth assay; type: functional; details: ATCC 35210, 24 h
[6] = test system: Enterobacter cloacae; assay: Antibacterial activity against human isolate of Enterobacter cloacae assessed as growth inhibition after 24 hrs at 37 degC by iodonitrotetrazolium chloride staining based microdilution broth assay; type: functional
[7] = test system: Pseudomonas aeruginosa; assay: Antibacterial activity against Pseudomonas aeruginosa ATCC 27853 assessed as growth inhibition after 24 hrs at 37 degC by iodonitrotetrazolium chloride staining based microdilution broth assay; type: functional; details: ATCC 27853, 24 h
[8] = test system: Salmonella typhimurium; assay: Antibacterial activity against Salmonella typhimurium ATCC 13311 assessed as growth inhibition after 24 hrs at 37 degC by iodonitrotetrazolium chloride staining based microdilution broth assay; type: functional, Salmonella enterica subsp. enterica serovar Typhimurium; details: Salmonella enterica, ATCC 13311, 24 h
[9] = test system: Aspergillus fumigatus; assay: Antifungal activity against Aspergillus fumigatus ATCC 1022 assessed as growth inhibition after 72 hrs at 28 degC by serial dilution method; type: functional; details: for MIC: Aspergillus fumigatus, ATCC 1022, 72 h
[10] = test system: Aspergillus versicolor; assay: Antifungal activity against Aspergillus versicolor ATCC 11730 assessed as growth inhibition after 72 hrs at 28 degC by serial dilution method; type: functional; details: for MIC: Aspergillus versicolor, ATCC 11730, 72 h
[11] = test system: Aspergillus ochraceus; assay: Antifungal activity against Aspergillus ochraceus ATCC 12066 assessed as growth inhibition after 72 hrs at 28 degC by serial dilution method; type: functional; details: for MIC: Aspergillus ochraceus, ATCC 12066, 72 h
[12] = test system: Aspergillus niger; assay: Antifungal activity against Aspergillus niger ATCC 6275 assessed as growth inhibition after 72 hrs at 28 degC by serial dilution method; type: functional; details: for MIC: Aspergillus niger, ATCC 6275, 72 h
[13] = test system: Trichoderma viride; assay: Antifungal activity against Trichoderma viride IAM 5061 assessed as growth inhibition after 72 hrs at 28 degC by serial dilution method; type: functional; details: for MIC: Trichoderma viride, IAM 5061, 72 h
[14] = test system: Talaromyces funiculosus; assay: Antifungal activity against Penicillium funiculosum ATCC 36839 assessed as growth inhibition after 72 hrs at 28 degC by serial dilution method; type: functional; details: for MIC: Talaromyces funiculosus, ATCC 36839, 72 h
[15] = test system: Penicillium ochrochloron; assay: Antifungal activity against Penicillium ochrochloron ATCC 9112 assessed as growth inhibition after 72 hrs at 28 degC by serial dilution method; type: functional; details: for MIC: Penicillium ochrochloron, ATCC 9112, 72 h
[16] = test system: Candida albicans; assay: Antifungal activity against Candida albicans ATCC 10231 assessed as growth inhibition after 72 hrs at 28 degC by serial dilution method; type: functional; details: for MIC: Candida albicans, ATCC 10231, 72 h
[17] = target: Human immunodeficiency virus type 1 reverse transcriptase (Human immunodeficiency virus 1) (UniProt Q72547); assay: Inhibition of HIV1 reverse transcriptase assessed as residual enzyme activity by measuring reduction in [3H]dTTP incorporation into poly(rA)-oligo(dT) at 4 uM incubated for 15 mins by scintillation counting method relative to control

| Structure (SMILES) | MBC [1] [µM] | MIC [1] [µM] | MBC [2] [µM] | MIC [2] [µM] | MBC [3] [µM] | MIC [3] [µM] | MBC [4] [µM] | MIC [4] [µM] | MBC [5] [µM] | MIC [5] [µM] | MBC [6] [µM] | MIC [6] [µM] | MBC [7] [µM] | MIC [7] [µM] | MBC [8] [µM] | MIC [8] [µM] | MFC99.5 [9] [×10⁻² umol/ml] | MIC [9] [µM] | MFC99.5 [10] [×10⁻² umol/ml] | MIC [10] [µM] | also measured |
| --- | --- | --- | --- | --- | --- | --- | --- | --- | --- | --- | --- | --- | --- | --- | --- | --- | --- | --- | --- | --- | --- |
| O=C1CSC(c2cccc(Cl)c2)N1c1nc(C23CC4CC(CC(C4)C2)C3)cs1 (configuration not stated) | 62.5 (≈ 26.9 µg/mL) | 16.2 (≈ 7 µg/mL) | 125 (≈ 53.9 µg/mL) | 62.5 (≈ 26.9 µg/mL) | 62.5 (≈ 26.9 µg/mL) | 30.6 (≈ 13.2 µg/mL) | 125 (≈ 53.9 µg/mL) | 62.5 (≈ 26.9 µg/mL) | 125 (≈ 53.9 µg/mL) | 62.5 (≈ 26.9 µg/mL) | 125 (≈ 53.9 µg/mL) | 62.5 (≈ 26.9 µg/mL) | 125 (≈ 53.9 µg/mL) | 62.5 (≈ 26.9 µg/mL) | 62.5 (≈ 26.9 µg/mL) | 30.6 (≈ 13.2 µg/mL) | 0.58 | 2.9 (≈ 1.25 µg/mL) | 0.07 | 0.3 (≈ 0.129 µg/mL) | MFC99.5 [11]: 0.07 ×10⁻² umol/ml; MIC [11]: 0.45 µM (≈ 0.194 µg/mL); MFC99.5 [12]: 0.07 ×10⁻² umol/ml; MIC [12]: 0.3 µM (≈ 0.129 µg/mL); MFC99.5 [13]: 0.045 ×10⁻² umol/ml; MIC [13]: 0.3 µM (≈ 0.129 µg/mL); MFC99.5 [14]: 0.58 ×10⁻² umol/ml; MIC [14]: 2.9 µM (≈ 1.25 µg/mL); MFC99.5 [15]: 0.58 ×10⁻² umol/ml; MIC [15]: 2.9 µM (≈ 1.25 µg/mL); MFC99.5 [16]: 1.16 ×10⁻² umol/ml; MIC [16]: 5.8 µM (≈ 2.5 µg/mL); Activity [17]: 99.3% |
| COc1ccc(C2SCC(=O)N2c2nc(C34CC5CC(CC(C5)C3)C4)cs2)cc1 (configuration not stated) | 30.6 (≈ 13.1 µg/mL) | 16.3 (≈ 6.95 µg/mL) | 125 (≈ 53.3 µg/mL) | 62.5 (≈ 26.7 µg/mL) | 62.5 (≈ 26.7 µg/mL) | 30.6 (≈ 13.1 µg/mL) | 125 (≈ 53.3 µg/mL) | 62.5 (≈ 26.7 µg/mL) | 125 (≈ 53.3 µg/mL) | 30.6 (≈ 13.1 µg/mL) | 125 (≈ 53.3 µg/mL) | 30.6 (≈ 13.1 µg/mL) | 62.5 (≈ 26.7 µg/mL) | 30.6 (≈ 13.1 µg/mL) | 62.5 (≈ 26.7 µg/mL) | 30.6 (≈ 13.1 µg/mL) | 2.34 | 11.7 (≈ 4.99 µg/mL) | 0.58 | 2.9 (≈ 1.24 µg/mL) | MFC99.5 [11]: 0.29 ×10⁻² umol/ml; MIC [11]: 1.4 µM (≈ 0.597 µg/mL); MFC99.5 [12]: 0.58 ×10⁻² umol/ml; MIC [12]: 2.9 µM (≈ 1.24 µg/mL); MFC99.5 [13]: 0.29 ×10⁻² umol/ml; MIC [13]: 1.4 µM (≈ 0.597 µg/mL); MFC99.5 [14]: 0.58 ×10⁻² umol/ml; MIC [14]: 2.9 µM (≈ 1.24 µg/mL); MFC99.5 [15]: 0.14 ×10⁻² umol/ml; MIC [15]: 0.9 µM (≈ 0.384 µg/mL); MFC99.5 [16]: 2.34 ×10⁻² umol/ml; MIC [16]: 11.7 µM (≈ 4.99 µg/mL); Activity [17]: 100% |
| O=C1CSC(c2ccccc2Cl)N1c1nc(C23CC4CC(CC(C4)C2)C3)cs1 (configuration not stated) | 125 (≈ 53.9 µg/mL) | 30.6 (≈ 13.2 µg/mL) | 125 (≈ 53.9 µg/mL) | 45 (≈ 19.4 µg/mL) | 125 (≈ 53.9 µg/mL) | 62.5 (≈ 26.9 µg/mL) | 125 (≈ 53.9 µg/mL) | 16.2 (≈ 7 µg/mL) | 125 (≈ 53.9 µg/mL) | 62.5 (≈ 26.9 µg/mL) | 125 (≈ 53.9 µg/mL) | 30.6 (≈ 13.2 µg/mL) | 125 (≈ 53.9 µg/mL) | 62.5 (≈ 26.9 µg/mL) | 125 (≈ 53.9 µg/mL) | 62.5 (≈ 26.9 µg/mL) | 1.16 | 5.8 (≈ 2.5 µg/mL) | 1.16 | 5.8 (≈ 2.5 µg/mL) | MFC99.5 [11]: 0.07 ×10⁻² umol/ml; MIC [11]: 0.3 µM (≈ 0.129 µg/mL); MFC99.5 [12]: 1.16 ×10⁻² umol/ml; MIC [12]: 9 µM (≈ 3.88 µg/mL); MFC99.5 [13]: 1.16 ×10⁻² umol/ml; MIC [13]: 5.8 µM (≈ 2.5 µg/mL); MFC99.5 [14]: 1.16 ×10⁻² umol/ml; MIC [14]: 5.8 µM (≈ 2.5 µg/mL); MFC99.5 [15]: 1.16 ×10⁻² umol/ml; MIC [15]: 5.8 µM (≈ 2.5 µg/mL); MFC99.5 [16]: 2.32 ×10⁻² umol/ml; MIC [16]: 11.6 µM (≈ 5 µg/mL); Activity [17]: 99.1% |
| O=C1CSC(c2ccc(Br)cc2)N1c1nc(C23CC4CC(CC(C4)C2)C3)cs1 (configuration not stated) | 210 (≈ 99.9 µg/mL) | 105 (≈ 49.9 µg/mL) | 420 (≈ 200 µg/mL) | 210 (≈ 99.9 µg/mL) | 420 (≈ 200 µg/mL) | 420 (≈ 200 µg/mL) | 630 (≈ 300 µg/mL) | 420 (≈ 200 µg/mL) | 210 (≈ 99.9 µg/mL) | 210 (≈ 99.9 µg/mL) | 420 (≈ 200 µg/mL) | 20 (≈ 9.51 µg/mL) | 630 (≈ 300 µg/mL) | 420 (≈ 200 µg/mL) | 420 (≈ 200 µg/mL) | 210 (≈ 99.9 µg/mL) | 21.02 | 210 (≈ 99.9 µg/mL) | 10.51 | 105 (≈ 50 µg/mL) | MFC99.5 [11]: 42.04 ×10⁻² umol/ml; MIC [11]: 105 µM (≈ 50 µg/mL); MFC99.5 [12]: 31.54 ×10⁻² umol/ml; MIC [12]: 210 µM (≈ 99.9 µg/mL); MFC99.5 [13]: 10.51 ×10⁻² umol/ml; MIC [13]: 105 µM (≈ 50 µg/mL); MFC99.5 [14]: 52.58 ×10⁻² umol/ml; MIC [14]: 210 µM (≈ 99.9 µg/mL); MFC99.5 [15]: 21.02 ×10⁻² umol/ml; MIC [15]: 210 µM (≈ 99.9 µg/mL); MFC99.5 [16]: 73.6 ×10⁻² umol/ml; MIC [16]: 526 µM (≈ 250 µg/mL); Activity [17]: 59.9% |
